“Also recorded” adds a separate entry of the source.
Assays:
cPLA2 = target: T1, cPLA2 (Homo sapiens, UniProt P47712); assay: cPLA2 activity on TX-100/PAPC mixed micelles, inhibition by 2-oxoamides; type: biochemical; details: for XI(50): mixed micelles TX-100 400 μM, PAPC 97 μM, PIP2 3 μM (0.6 mole %); for Inhibition of cPLA2: result in words; for Inhibitory potency relative to OA4 (fold less potent): compared with OA4
T1 sequence (P47712 1-749): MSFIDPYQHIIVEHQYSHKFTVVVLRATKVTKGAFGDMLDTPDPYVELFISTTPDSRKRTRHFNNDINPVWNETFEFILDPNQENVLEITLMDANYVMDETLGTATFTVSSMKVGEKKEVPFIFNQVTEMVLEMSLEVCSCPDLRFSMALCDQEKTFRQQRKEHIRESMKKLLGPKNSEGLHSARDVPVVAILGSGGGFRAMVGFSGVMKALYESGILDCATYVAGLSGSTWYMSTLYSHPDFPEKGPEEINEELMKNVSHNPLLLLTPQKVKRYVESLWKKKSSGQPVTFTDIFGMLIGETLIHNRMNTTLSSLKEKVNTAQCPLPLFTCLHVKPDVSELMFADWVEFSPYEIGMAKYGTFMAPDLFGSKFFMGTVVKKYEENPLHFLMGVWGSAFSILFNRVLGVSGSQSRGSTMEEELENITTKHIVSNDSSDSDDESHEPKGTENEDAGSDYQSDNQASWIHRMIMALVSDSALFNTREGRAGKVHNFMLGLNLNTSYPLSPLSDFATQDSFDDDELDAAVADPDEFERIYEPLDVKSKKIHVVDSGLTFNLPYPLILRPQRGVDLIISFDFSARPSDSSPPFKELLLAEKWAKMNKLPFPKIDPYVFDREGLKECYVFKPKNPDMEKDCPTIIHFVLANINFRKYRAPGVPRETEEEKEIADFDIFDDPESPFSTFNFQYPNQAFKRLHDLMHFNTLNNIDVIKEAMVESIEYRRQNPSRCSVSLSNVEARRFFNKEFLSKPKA

iPLA2 = target: T2, iPLA2 (Homo sapiens, UniProt O60733); assay: iPLA2 activity mixed micelle assay, inhibition by 2-oxoamides; type: biochemical
T2 sequence (O60733 1-806): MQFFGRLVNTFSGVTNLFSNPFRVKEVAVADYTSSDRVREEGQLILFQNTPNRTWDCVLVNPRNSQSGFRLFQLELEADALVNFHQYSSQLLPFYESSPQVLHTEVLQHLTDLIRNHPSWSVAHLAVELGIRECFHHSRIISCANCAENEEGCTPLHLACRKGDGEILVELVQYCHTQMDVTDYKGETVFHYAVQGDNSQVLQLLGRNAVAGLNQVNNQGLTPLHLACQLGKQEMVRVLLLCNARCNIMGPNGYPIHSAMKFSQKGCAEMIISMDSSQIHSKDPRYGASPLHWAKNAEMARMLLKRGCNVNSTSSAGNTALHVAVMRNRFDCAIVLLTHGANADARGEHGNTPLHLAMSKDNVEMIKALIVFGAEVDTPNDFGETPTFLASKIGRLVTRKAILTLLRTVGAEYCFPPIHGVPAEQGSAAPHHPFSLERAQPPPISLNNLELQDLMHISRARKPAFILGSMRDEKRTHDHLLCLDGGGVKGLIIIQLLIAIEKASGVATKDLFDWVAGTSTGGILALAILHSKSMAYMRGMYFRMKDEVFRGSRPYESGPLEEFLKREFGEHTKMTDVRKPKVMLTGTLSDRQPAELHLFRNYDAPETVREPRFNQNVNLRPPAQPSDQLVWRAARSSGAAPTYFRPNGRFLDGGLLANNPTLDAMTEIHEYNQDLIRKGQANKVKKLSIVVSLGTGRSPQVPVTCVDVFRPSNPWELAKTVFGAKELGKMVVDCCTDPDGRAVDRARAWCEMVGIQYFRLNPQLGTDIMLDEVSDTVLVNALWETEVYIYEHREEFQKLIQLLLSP
Excerpt: All of the data above are provided with respect to XI(50), which is the mole fraction of inhibitor in the total substrate interface required to inhibit the enzyme by 50%. Almost all inhibitors of PLA2's partition into the phospholipid surface, because they usually have a hydrophobic nature that helps them bind to the active site of the PLA2. When these inhibitors partition into the surface, an important physical effect called surface dilution comes into play. In this case, the strength of the interaction of PLA2 and an inhibitor depends not on the bulk concentration of the inhibitor (molar units), but on the surface concentration of the inhibitor (mole fraction units).
PLA2 Activity Assays: Following homoginization and centrifugation, the spinal cord supernatants were assayed for cPLA2 or iPLA2 activity using the group specific assays developed in our laboratory (Yang et al., Biochem; 269: 278-288, 1999). Briefly the cPLA2 assay conditions were: 100 μM lipid PAPC/PIP2 (97/3) doping with 1% ^14C labeled PAPC in 400 μM triton X-100 mixed micelles, 100 mM Hepes, pH 7.5, 0.08 mM CaCl2, 0.1 mg/ml BSA and 2 mM DTT. iPLA2 assay conditions were: 100 μM DPPC doping with 1% ^14C labeled DPPC in 400 μM triton X-100 mixed micelles, 100 mM Hepes, pH 7.5, 5 mM EDTA, and 1 mM ATP. The total volume for each assay is 500 μL: 200 μL lipid, 250 μL assay buffer, 50 μL sample. In each case the amount of calcium or EDTA added was adjusted to account for the addition of EDTA in the lysis buffer to give the final concentrations listed above.
Lipid preparation: Lipid was dried under N2 and lyopholized for at least one hour to remove all traces of chloroform. Lipid was then resuspended in […] and triton X-100 and micelles were created by repeated vortexing and heating in hot water until the solution clarified. Samples were incubated with substrate for one hour at 40° C. The assay was then terminated and fatty acid extracted by the modified Dole assay. The amount of radioactive fatty acid released in the assay was determined by scintillation counting. Following analysis the data for the cPLA2 assay was adjusted for contaminating iPLA2 activity as described by Yang, et al. (Yang, et al., Anal. Biochem. 269: 278-288 (1999).

[1] = Table 3, at 0.020 mole fraction
[2] = Table 2, at 0.091 mole fraction, iPLA2

SMILES | XI(50) (mole fraction) (cPLA2; Table 2, iPLA2) | Inhibition of cPLA2 (cPLA2) | further results
CCOC[C@H](CCC(=O)O)NC(=O)C(=O)CC [OA10] | 0.045 ± 0.007 | – | XI(50) (cPLA2): 0.045±0.007 mole fraction
CCCCCCCCCCCCCC(=O)C(=O)N[C@@H](CCCC)CCCC(=O)O [OA5, (5S)-5-(2-Oxopentadecanoylamino)-nonanoic Acid] | 0.008 ± 0.003 | – | Inhibitory potency relative to OA4 (fold less potent) (cPLA2; cPLA2): essentially equivalent
CCC/C=C\CCNC(=O)C(=O)CC [OA23] | – | – | Highest Conc. (mole fraction) w/ % inhibition (iPLA2; [1]): 0.020: 43% ± 4%
CCC(=O)C(=O)NCCCC(=O)OC [OA19] | – | no inhibitory activity; also recorded: no measurable inhibition | XI(50) (mole fraction) (iPLA2; Table 3): 0.0158 ± .0009 mole fraction
CCNC(=O)C(=O)CC [OA22] | – | – | Highest Conc. (mole fraction) w/ % inhibition (iPLA2; [1]): 0.020: 31% ± 6%
CCC(=O)C(=O)N[C@H]1CCC(=O)OC1 [OA25] | – | fairly poor inhibitor | Highest Conc. (mole fraction) w/ % inhibition (cPLA2; Table 4, cPLA2, at 0.091 mole fraction): cPLA2: 0.091: 41% iPLA2: N/A; XI(50) (mole fraction) (iPLA2; Table 4): C PLA2: N.D. I PLA2: 0.0142 ± 0.0004 mole fraction
CCNC(=O)C(=O)CC [OA8] | – | – | Highest Conc. (mole fraction) w/ % inhibition (cPLA2; Table 2, at 0.02 mole fraction, iPLA2): 0.02; 22% ± 7%
CCCCCCCCCCC(=O)C(=O)N[C@@H](CCC(=O)O)COC(=O)NCCCCCCCC [OA16, 5-octylcarbamoyloxy-4-(S)-(2-oxo-dodecanoylamino)-pentanoic Acid] | – | essentially no measurable inhibition | Highest Conc. (mole fraction) w/ % inhibition (cPLA2; [2]): 0.091, 60%
CCCCCCCCCCCCCC(=O)C(=O)N1CCCC1CCC(=O)O (stereo not shown) [OA18, 3-[1-(2-Oxo-pentadecanoyl)-pyrrolidin-2-yl]propionic Acid] | – | – | Highest Conc. (mole fraction) w/ % inhibition (cPLA2; [2]): 0.091; 24%
CCCCCCCCCCCCCC(=O)C(=O)N[C@@H](CCCC)CC(=O)O [OA3, (3S)-(2-Oxo-pentadecanoylamino)-heptanoic Acid] | 0.027 ± 0.004 | – | Inhibitory potency relative to OA4 (fold less potent) (cPLA2; cPLA2): around 3 fold
CCC(=O)C(N)=O [OA21] | – | – | Highest Conc. (mole fraction) w/ % inhibition (iPLA2; [1]): 0.020: 38% ± 6%
CCCCCCC(=O)C(=O)N[C@H](CCC(=O)O)Cc1ccccc1 [OA17, (4R)-4-(2-Oxo-octanoylamino)-5-phenyl-pentanoic Acid] | – | – | Highest Conc. (mole fraction) w/ % inhibition (cPLA2; [2]): 0.091; 24%
CCCCCCCCCCC(=O)C(=O)N[C@@H](CCC(=O)O)C(=O)NCC [OA29, 4-Ethylcarbamoyl-4-(S)-(2-oxo-dodecanoylamino)-butyric Acid] | – | did not inhibit; also recorded: essentially no measurable inhibition | –
CCCCCCCCCCCCCCC(=O)C(=O)N[C@@H](CCC(=O)O)C(=O)NCCCCCCCCCC [OA15, 4-Decylcarbamoyl-4-(S)-(2-oxo-hexadecanoylamino)-butyric Acid] | 0.044 ± 0.007 | moderate level of inhibition | –
CCNC(=O)OC[C@H](CCC(=O)OC)NC(=O)C(=O)CC [OA26] | – | does | XI(50) (mole fraction) (cPLA2; Table 4, cPLA2): 0.028 ± 0.017 mole fraction; XI(50) (mole fraction) (iPLA2; Table 4): 0.018 ± 0.002 mole fraction
CCCCCCCCCCC(=O)C(=O)N[C@@H](CCC(=O)O)COC(=O)NCC [OA30, 5-ethylcarbamoyloxy-4-(S)-(2-oxo-dodecanoylamino)-pentanoic Acid] | – | does not inhibit; also recorded: essentially no measurable inhibition | –
CCC/C=C\CCNC(=O)C(=O)CC [OA24] | – | – | Highest Conc. (mole fraction) w/ % inhibition (iPLA2; [1]): 0.020: 60% ± 6%
CCCCCCCCCCOC[C@@H](CCC(=O)O)NC(=O)C(=O)CCCCCCCCCC [OA11, (4R)-5-(Decyloxy)-4-[(2-oxododecanoyl)amino]pentanoic Acid] | 0.047 ± 0.006 | – | XI(50) (cPLA2): 0.047±0.006 mole fraction

Second part, led by results:

XI(50) (mole fraction) (cPLA2; Table 2, iPLA2) | Inhibition of cPLA2 (cPLA2) | SMILES | further results
– | do not inhibit | COC(=O)CCCNC(=O)C(=O)CCCc1ccccc1 [OA34] | –
– | lack of inhibition | O=C(O)CCCNC(=O)C(=O)CCCCc1ccccc1 [OA35, 4-(2-Oxo-6-phenyl-hexanoylamino)-butyric Acid] | –
– | do not inhibit | COC(=O)CCCNC(=O)C(=O)CCCCc1ccccc1 [OA20] | Highest Conc. (mole fraction) w/ % inhibition (iPLA2; Table 3, at 0.091 mole fraction): 0.091: 55% ± 4%
0.035 ± 0.016 | – | CCCCCCCCCCCCCC(=O)C(=O)N[C@H](CCC(=O)O)Cc1ccccc1 [OA9, (4R)-4-(2-Oxo-pentadecanoylamino)-5-phenyl-pentanoic Acid] | –
– | essentially no measurable inhibition | CCCCCCCCCCC(=O)C(=O)N[C@H](CCC(=O)O)COC(=O)NCC [OA32, 5-ethylcarbamoyloxy-4-(R)-(2-oxo-dodecanoylamino)-pentanoic Acid] | –
0.068 ± 0.005 | – | CCCCCCCCCCC(=O)C(=O)N[C@H](CCCC)CCC(=O)O [OA7, (4R)-4-[(2-Oxododecanoyl)amino]octanoic acid] | XI(50) (cPLA2): 0.068±0.005 mole fraction
– | lack of inhibition | O=C(O)CCCNC(=O)C(=O)CCCc1ccccc1 [OA36, 4-(2-Oxo-5-phenyl-pentanoylamino)-butyric Acid] | –
0.017 ± 0.006 | – | CCCCCCCCCCCCCC(=O)C(=O)N[C@H](CCC(=O)O)CC(C)C [OA12, (4R)-6-Methyl-4-(2-oxo-pentadecanoylamino)-heptanoic Acid] | –
0.018 ± 0.009 | – | CCCCCCCCCCC(=O)C(=O)N[C@@H](CCCC)CCCCC(=O)O [OA6, (6S)-6-(2-Oxo-dodecanoylamino)-decanoic Acid] | Inhibitory potency relative to OA4 (fold less potent) (cPLA2; cPLA2): around 2 fold
0.033 ± 0.013 | – | CCCCCCCCCCC(=O)C(=O)N[C@H](CCC(=O)O)CC(C)C [OA13, (4R)-6-Methyl-4-(2-oxo-dodecanoylamino)-heptanoic Acid] | –
– | essentially no measurable inhibition | CCCCCCCCCCC(=O)C(=O)N[C@H](CCC(=O)O)C(=O)NCC [OA31, 4-Ethylcarbamoyl-4-(R)-(2-oxo-dodecanoylamino)-butyric Acid] | –
